Measurements published in patent US9096560B2, “5-heterocyclylalkyl-3-hydroxy-2-phenylcyclopent-2-enones as herbicides” (Syngenta Limited, priority 2008, dated 2015).

What was measured:
Format in all cases: in vivo
Lolium perenne (LOLPE) [1] = test: Example B pre-emergence herbicidal test, LOLPE; conditions: Lolium perenne, 312 h, rate 250 g/ha, evaluated after 13 days, 100=total damage to plant, 0=no damage to plant
Protocol: (§1) Seeds of a variety of test species were sown in standard soil in pots. After cultivation for one day (pre-emergence) or after 8 days cultivation (post-emergence) under controlled conditions in a glasshouse (at 24/16° C., day/night; 14 hours light; 65% humidity), the plants were sprayed with an aqueous spray solution derived from the formulation of the technical active ingredient in acetone/water (50:50) solution containing 0.5% Tween 20 (polyoxyethelyene sorbitan monolaurate, CAS RN 9005-64-5). The test plants were then grown in a glasshouse under controlled conditions in a glasshouse (at 24/16° C., day/night; 14 hours light; 65% humidity) and watered twice daily. After 13 days for pre and post-emergence, the test was evaluated (100=total damage to plant; 0=no damage to plant). Lolium perenne (LOLPE), Alopecurus myosuroides (ALOMY), Echinochloa crus-galli (ECHCG), Avena fatua (AVEFA) Pre-Emergence Activity

[2] = test system: Alopecurus myosuroides (ALOMY); test: Example B pre-emergence herbicidal test, ALOMY; conditions: Alopecurus myosuroides, 312 h, rate 250 g/ha, evaluated after 13 days, 100=total damage to plant, 0=no damage to plant
Protocol: as §1

[3] = test system: Echinochloa crus-galli (ECHCG); test: Example B pre-emergence herbicidal test, ECHCG; conditions: Echinochloa crus-galli, 312 h, rate 250 g/ha, evaluated after 13 days, 100=total damage to plant, 0=no damage to plant
Protocol: as §1

Avena fatua (AVEFA) [4] = test: Example B pre-emergence herbicidal test, AVEFA; conditions: Avena fatua, 312 h, rate 250 g/ha, evaluated after 13 days, 100=total damage to plant, 0=no damage to plant
Protocol: as §1

Lolium perenne (LOLPE) [5] = test: Example B post-emergence herbicidal test, LOLPE; conditions: Lolium perenne, 312 h, rate 250 g/ha, evaluated after 13 days, scale 0-100, read-out: Post-emergence activity LOLPE (100=total damage to plant; 0=no damage to plant)
Protocol: as §1, with “Post-Emergence” for “Pre-Emergence”

[6] = test system: Alopecurus myosuroides (ALOMY); test: Example B post-emergence herbicidal test, ALOMY; conditions: Alopecurus myosuroides, 312 h, rate 250 g/ha, evaluated after 13 days, scale 0-100, read-out: Post-emergence activity ALOMY (100=total damage to plant; 0=no damage to plant)
Protocol: as §1, with “Post-Emergence” for “Pre-Emergence”

[7] = test system: Echinochloa crus-galli (ECHCG); test: Example B post-emergence herbicidal test, ECHCG; conditions: Echinochloa crus-galli, 312 h, rate 250 g/ha, evaluated after 13 days, scale 0-100, read-out: Post-emergence activity ECHCG (100=total damage to plant; 0=no damage to plant)
Protocol: as §1, with “Post-Emergence” for “Pre-Emergence”

Avena fatua (AVEFA) [8] = test: Example B post-emergence herbicidal test, AVEFA; conditions: Avena fatua, 312 h, rate 250 g/ha, evaluated after 13 days, scale 0-100, read-out: Post-emergence activity AVEFA (100=total damage to plant; 0=no damage to plant)
Protocol: as §1, with “Post-Emergence” for “Pre-Emergence”

SMILES	pest or weed control at 250 g/ha (Lolium perenne (LOLPE) [1]) [%]	pest or weed control at 250 g/ha [2] [%]	pest or weed control at 250 g/ha [3] [%]	pest or weed control at 250 g/ha (Avena fatua (AVEFA) [4]) [%]	pest or weed control at 250 g/ha (Lolium perenne (LOLPE) [5]) [%]	pest or weed control at 250 g/ha [6] [%]	pest or weed control at 250 g/ha [7] [%]	pest or weed control at 250 g/ha (Avena fatua (AVEFA) [8]) [%]
Cc1cc(C)c(C2=C(OC(=O)OC(C)C)CC(CC3CCOC3)C2=O)c(C)c1 (centres unmarked) [Compound P31]	100	100	100	90	100	90	100	90
Cc1cc(C)c(C2=C(OC(=O)C(C)(C)C)CC(CCC3CCOCC3)C2=O)c(C)c1 (centres unmarked) [Compound P34]	100	90	100	90	100	80	60	90
Cc1cc(C)c(C2=C(OC(=O)C(C)(C)C)CC(CC3CCCOC3)C2=O)c(C)c1 (centres unmarked) [Compound P37]	100	100	70	70	90	90	90	90
CC(=O)OC1=C(c2c(C)cc(C)cc2C)C(=O)/C(=C/C2CCN(C(C)=O)C2)C1 (centres unmarked) [Compound P42]	40	30	30	0	40	60	70	70
COC(=O)OC1=C(c2c(C)cc(C)cc2C)C(=O)C(CC2CCOCC2)C1 (centres unmarked) [Compound P45]	100	100	100	100	100	100	90	100
Cc1cc(C)c(C2=C(OS(C)(=O)=O)C/C(=C\C3CCN(S(C)(=O)=O)C3)C2=O)c(C)c1 (centres unmarked) [Compound P46]	90	70	100	60	80	90	70	90
CCSC(=O)OC1=C(c2c(C)cc(C)cc2C)C(=O)/C(=C/C2CCN(C(=O)SCC)C2)C1 (centres unmarked) [Compound P47]	60	30	60	50	60	70	50	60
Cc1cc(C)c(C2=C(OC(=O)c3ccccc3)C/C(=C\C3CCN(C(=O)c4ccccc4)C3)C2=O)c(C)c1 (centres unmarked) [Compound P48]	80	70	40	60	90	90	90	100
Cc1cc(C)c(C2=C(OC(=O)C(C)(C)C)CC(CC3COCCO3)C2=O)c(C)c1 (centres unmarked) [Compound P49]	100	80	100	60	100	80	100	90
CON1CCC(CC2CC(OC(C)=O)=C(c3c(C)cc(C)cc3C)C2=O)CC1 (centres unmarked) [Compound P50]	100	100	100	100	100	100	100	100
CON1CCC(CC2CC(OC(=O)C(C)(C)C)=C(c3c(C)cc(C)cc3C)C2=O)CC1 (centres unmarked) [Compound P51]	100	100	100	100	100	100	100	100
Cc1cc(C)c(C2=C(OC(=O)OC(C)(C)C)C/C(=C\C3CCN(C(=O)OC(C)(C)C)CC3)C2=O)c(C)c1 [Compound P53]	100	60	90	70	20	60	70	40
Cc1cc(C)c(C2=C(OC(=O)OC(C)(C)C)CC(CC3CCN(C(=O)OC(C)(C)C)CC3)C2=O)c(C)c1 (centres unmarked) [Compound P54]	100	80	100	70	40	70	80	50
CON1CCC(CC2CC(OC(=O)c3ccccc3)=C(c3c(C)cc(C)cc3C)C2=O)CC1 (centres unmarked) [Compound P55]	100	100	100	90	100	90	100	100
Cc1cc(C)c(C2=C(OC(=O)C3CC3)CC(CC3CCN(C(=O)C4CC4)C3)C2=O)c(C)c1 (centres unmarked) [Compound P57]	60	50	30	70	60	80	70	80
Cc1cc(C)c(C2=C(OC(=O)C(C)C)CC(CC3CCN(C(=O)C(C)C)C3)C2=O)c(C)c1 (centres unmarked) [Compound P58]	80	70	80	70	90	90	70	90
Cc1cc(C)c(C2=C(OC(=O)C(C)(C)C)CC(CC3CCN(C(=O)C(C)(C)C)C3)C2=O)c(C)c1 (centres unmarked) [Compound P59]	80	50	70	30	80	90	70	80
Cc1cc(C)c(C2=C(OC(=O)C(C)(C)CCl)CC(CC3CCN(C(=O)C(C)(C)CCl)C3)C2=O)c(C)c1 (centres unmarked) [Compound P60]	80	30	50	0	70	80	40	80
Cc1cc(C)c(C2=C(OC(=O)c3cccs3)CC(CC3CCN(C(=O)c4cccs4)C3)C2=O)c(C)c1 (centres unmarked) [Compound P61]	90	50	80	30	90	90	90	90
